# Where two headings read alike, the source gives them in different places. Marks after values point to notes of the source that are not given here. Where a SMILES comes first, the peptide text is derived from it. [ ]: non-standard residue; d: D form. The star is where a group is joined. d(aIle) = CC[C@H](C)[C@@H](N)C(=O)O; X1 = CC[C@H](C)CCCCC(=O)*; dDab = NCC[C@@H](N)C(=O)O; Dab = NCC[C@H](N)C(=O)O
# What was measured:
# CYP2C9 = CYP2C9 (Homo sapiens, UniProt P11712); experiment: CYP inhibition assay, recombinant isoform, fluorescence; assay type: biochemical
# Experimental: The CYP inhibition assay was performed for test/control inhibitor items in duplicates using a 96-well fluorescence plate. An example of the preparation of CYP inhibition is given below in Table 8.
# The plate with CYP master premix with test/control was incubated to allow the test/control samples to interact with CYP enzyme for 10 ± 1 min at 25°C under shaking conditions (400 rpm) using Thermomixer. The assay was initiated by adding 10 µL of a substrate and NADP^+ mixture to all wells, including a vehicle control and an assay blank. The plate was then incubated at 25°C for 25 min with shaking at 400 rpm using a thermomixer. After incubation, the reaction was quenched by adding 50 µL of stop reagent (0.5 M Tris base) to each well. Fluorescence was measured using a microplate reader at excitation/emission wavelengths of 415/460 nm, respectively ([37]).
# [1] = Experimental: Acute toxicity was performed on Balb/c female mice, 8 weeks old. This study was adopted and modified from a study described previously ([39]). Initial screening was done with 100 mg/kg, 200 mg/kg, 400 mg/kg, and 600 mg/kg doses of tridecaptin M and vehicle control (100% DMSO). […] Eight mice were taken, four in each group ([…]), one group was administered vehicle control (DMSO), and the other group was administered 600 mg/kg of tridecaptin M. After 3 days, blood was collected to obtain serum for biochemical tests, and mice were euthanized to remove organs (preserved in 10% formalin) for histopathological analysis.
# [2] = Intravenous acute toxicity in mice; assay type: in vivo, Balb/c mice
# Experimental: In total, 8–10 week old female Balb/c mice (n = 3) were administered tridecaptin M starting at 15 mg/kg, 25 mg/kg, 50 mg/kg, and 100 mg/kg. […] In this study, we administered 18 mg/kg of colistin to mice intravenously. […] Later, in the second set, intermediate concentrations of 20 mg/kg, 25 mg/kg, 30 mg/kg, 35 mg/kg, and 40 mg/kg doses were also administered to n = 4 mice. In these groups, blood was collected at 24 h post administration or immediately after visible movement stopped (40 mg/kg group), serum was separated and pooled together for each group n = 4, and biochemical serum tests were conducted.
# Remark: listed apart in the source
# in vivo = conditions: male, Sprague-Dawley, rat, plasma, 5 mg/kg; for Cmax / half-life: 5 mg/kg b.w.
# Experimental: The samples were then centrifuged at 4,000 rpm for 10 min at 4°C to separate plasma, which was stored at −80°C until analysis.
# in vitro [3] = conditions: rat, plasma, % Binding to Plasma Protein
# Experimental: Plasma protein binding was assessed using the rapid equilibrium dialysis (RED) method, utilizing RED insert devices with a dialysis membrane featuring an 8,000 Dalton molecular weight cutoff for proteins. The test/control items in human, rat, and mouse plasma were prepared at a test concentration of 10 µM using 10 mM DMSO stocks, and the samples were added to the plasma chamber of the RED insert. The device was sealed with tape and incubated in a thermomixer at 37°C with shaking at 300 rpm for 4 h. Following incubation, a 50 µL aliquot of plasma and buffer was collected from each insert and diluted with an equal volume of the opposite matrix to mitigate matrix effects. The samples were quantified using LC-MS/MS analysis and were tested in duplicates.
# in vitro [4] = conditions: human, microsomes, pH 7.4
# Experimental: For without cofactors, 20 µL of PBS was added instead of pre-incubated cofactors. […] At each specified time, a 100 µL sample was taken, processed through a sample extraction procedure, and submitted for LC-MS/MS analysis ([35]). Half-life (t1/2) of test/control items was determined using the following equation
# where, elimination rate constant (k) = −(slope of linear regression curve).
# mammalian cell lines = conditions: cited from earlier work
# [5] = 14-day repeat dose toxicity in mice; conditions: 15 mg/kg/day in two s.c. doses, 14 days
# Experimental: Organs were fixed in 10% formalin for histopathology, and the serum was centrifuged from whole blood. The blood was left undisturbed for 20 min and centrifuged at 1,000 × g for 10 min to isolate serum for biochemical tests of the kidney and liver toxicity evaluation ([22]).
# [6] = 40 /kg i.v., at death within 2 h
# [7] = subcutaneous, 5 mg/kg b.w., plasma
# Sequence of CYP2C9 (P11712 whole entry, canonical isoform): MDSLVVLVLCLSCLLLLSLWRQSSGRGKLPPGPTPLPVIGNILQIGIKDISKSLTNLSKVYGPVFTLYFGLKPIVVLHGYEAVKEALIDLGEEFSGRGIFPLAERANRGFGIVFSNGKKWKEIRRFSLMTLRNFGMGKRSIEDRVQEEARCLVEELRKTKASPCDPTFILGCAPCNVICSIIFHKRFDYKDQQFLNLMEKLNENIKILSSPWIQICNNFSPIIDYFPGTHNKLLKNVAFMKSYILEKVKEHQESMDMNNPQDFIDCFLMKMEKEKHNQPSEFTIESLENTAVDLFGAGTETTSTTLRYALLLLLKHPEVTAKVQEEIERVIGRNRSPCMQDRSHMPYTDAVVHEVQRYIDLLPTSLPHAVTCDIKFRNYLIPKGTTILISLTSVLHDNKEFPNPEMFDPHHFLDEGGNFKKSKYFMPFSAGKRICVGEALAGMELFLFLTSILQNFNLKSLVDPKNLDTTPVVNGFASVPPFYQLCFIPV
smiles,measurement,setting,value
"CC[C@H](C)CCCCC(=O)NCC(=O)N[C@H](CCN)C(=O)NCC(=O)N[C@H](CO)C(=O)N[C@H](Cc1c[nH]c2ccccc12)C(=O)N[C@@H](CO)C(=O)N[C@@H](CCN)C(=O)N[C@H](CCN)C(=O)N[C@H](C(=O)N[C@@H](CCC(=O)O)C(=O)N[C@H](C(=O)N[C@@H](C(=O)N[C@@H](CO)C(=O)O)[C@@H](C)CC)[C@@H](C)CC)[C@@H](C)CC [Tridecaptin M, tridecaptin M] (X1-G[dDab]G[dS][dW]S[Dab][dDab]IEI[d(aIle)]S-OH)",IC50,CYP2C9,> 30 µM
same,"inhibition at 25 min, 0.01 µM",CYP2C9; human,< 0%
same,"inhibition at 25 min, 0.03 µM",CYP2C9; human,0.93%
same,"inhibition at 25 min, 0.1 µM",CYP2C9; human,< 0%
same,"inhibition at 25 min, 0.3 µM",CYP2C9; human,< 0%
same,"inhibition at 25 min, 1 µM",CYP2C9; human,0.05%
same,"inhibition at 25 min, 3 µM",CYP2C9; human,< 0%
same,"inhibition at 25 min, 10 µM",CYP2C9; human,0.82%
same,"inhibition at 25 min, 30 µM",CYP2C9; human,25.6%
same,SGPT (serum),"[1]; 600 mg/kg s.c., female mouse TF-2, day 3",112 Units/L
same,mortality,[1]; single s.c. dose 100-600 mg/kg,No mortality was observed
same,"histopathology of heart, kidney, liver, brain, spleen","[1]; single s.c. dose 100-600 mg/kg, vs vehicle control",No signs of toxicity or pathological changes
same,dose up to which safety is confirmed,[1]; subcutaneous administration,up to 600 mg/kg
same,Amylase (pooled serum),"[2]; 20 mg/kg i.v., 24 h",3800 U/L
same,BUN (pooled serum),"[2]; 20 mg/kg i.v., 24 h",96 mg%
same,CPK (pooled serum),"[2]; 20 mg/kg i.v., 24 h",448 U/L
same,CPK_MB (pooled serum),"[2]; 20 mg/kg i.v., 24 h",420 U/L
same,Glucose (pooled serum),"[2]; 20 mg/kg i.v., 24 h",344 mg/dL
same,LDH (pooled serum),"[2]; 20 mg/kg i.v., 24 h",2120 U/L
same,Lipase (pooled serum),"[2]; 20 mg/kg i.v., 24 h",1016 U/L
same,SGOT (pooled serum),"[2]; 20 mg/kg i.v., 24 h",244 Units/L
same,SGPT (pooled serum),"[2]; 20 mg/kg i.v., 24 h",68 Units/L
same,outcome of i.v. administration,[2]; 25 mg/kg or less i.v.,no visible signs of toxicity or mortality
same,clinical signs,[2]; 30 mg/kg i.v.,"abnormal motor behavior, including dragging of limbs"
same,survival time post-administration,[2]; 30 mg/kg i.v.,6 to 10 h
same,time to mortality,[2]; 40 mg/kg i.v.,≤ 2 h
same,outcome of i.v. administration,[2]; 50 mg/kg i.v.,resulted in mortality
same,outcome of i.v. administration,[2]; 100 mg/kg i.v.,immediately lethal
same,Amylase (pooled serum),"[2]; 25 /kg i.v., 24 h",5144 U/L
same,BUN (pooled serum),"[2]; 25 /kg i.v., 24 h",112 mg%
same,CPK (pooled serum),"[2]; 25 /kg i.v., 24 h",712 U/L
same,CPK_MB (pooled serum),"[2]; 25 /kg i.v., 24 h",952 U/L
same,Glucose (pooled serum),"[2]; 25 /kg i.v., 24 h",248 mg/dL
same,LDH (pooled serum),"[2]; 25 /kg i.v., 24 h",3896 U/L
same,Lipase (pooled serum),"[2]; 25 /kg i.v., 24 h",972 U/L
same,SGOT (pooled serum),"[2]; 25 /kg i.v., 24 h",872^b Units/L
same,SGPT (pooled serum),"[2]; 25 /kg i.v., 24 h",208 Units/L
same,Amylase (pooled serum),[2]; [6],1560 U/L
same,BUN (pooled serum),[2]; [6],24 mg%
same,CPK (pooled serum),[2]; [6],"24,472 U/L"
same,CPK_MB (pooled serum),[2]; [6],1408 U/L
same,Glucose (pooled serum),[2]; [6],152 mg/dL
same,LDH (pooled serum),[2]; [6],3280 U/L
same,Lipase (pooled serum),[2]; [6],368 U/L
same,SGOT (pooled serum),[2]; [6],784 Units/L
same,SGPT (pooled serum),[2]; [6],88 Units/L
same,"histopathology of liver, kidney, heart and brain vs control",[2]; i.v. administration,no significant morphological alterations
same,dose at which acute toxicity is seen,[2]; intravenous administration,≥ 30 mg/kg
same,Cmax relative to the MIC value,"intravenous, 5mg/kg b.w.",about 10 times
same,time plasma concentration maintained above MIC (4µg/mL),"intravenous, 5mg/kg b.w.",about 4 h
same,Cmax,"intravenous, 5 mg/kg b.w., plasma, 5 mg/kg",43200 ± 6020 ng/mL
same,CL,[7],4.95 ± 0.24 mL/min/kg
same,Vss,[7],2.63 ± 0.45 L/kg
same,T1/2,"subcutaneous, 5 mg/kg b.w., plasma, 5 mg/kg",8.56 ± 1.60 h
same,AUC(0-t),in vivo; iv,94600 ± 45000 ng·h/mL
same,MRT last,in vivo; iv,2.69 ± 1.02 h
same,Vd,in vivo; iv,0.16 ± 0.04 L/kg
same,clearance,in vivo; iv,1 ± 0.33 mL/min/kg
same,Cmax,in vivo; iv,38500 ng/mL
same,half-life,"in vivo; iv, T1/2, intravenous",3.65 ± 0.56 h
same,AUC(0-t),in vivo; sc,14000 ± 2090 ng·h/mL
same,MRT last,in vivo; sc,8.81 ± 2.1 h
same,Cmax,"in vivo; sc, subcutaneous",9150 ± 1700 ng/mL
same,half-life,"in vivo; sc, T1/2, subcutaneous",8.81 h
same,"fraction unbound at 4 h, 10 µM",in vitro [3],0.465
same,half-life,in vitro [4],1.31 h
same,microsomal CLint,in vitro [4],17.6 µL/min/mg
same,remaining at 0.25 h,in vitro [4],58%
same,remaining at 0.5 h,in vitro [4],50.2%
same,remaining at 1 h,in vitro [4],53.7%
same,remaining at 2 h,in vitro [4],48.4%
same,cytotoxicity,mammalian cell lines,non-cytotoxic
same,ALP (serum),[5],77.33 ± 27.47 U/L
same,Albumin (serum),[5],2.60 ± 0.47 g/dL
same,BBilirubin (serum),[5],0.31 ± 0.06 mg/dL
same,BUN (serum),[5],35.33 ± 11.43 mg%
same,Calcium (serum),[5],7.76 ± 2.19 mg%
same,Creatinine (serum),[5],0.41 ± 0.026 mg%
same,Globulin (serum),[5],3.53 ± 0.83 g/dL
same,Phosphorous (serum),[5],7.36 ± 1.27 mg%
same,Proteins (serum),[5],6.13 ± 1.06 g/dL
same,SGOT (serum),[5],657.33 ± 141.06 Units/L
same,SGPT (serum),[5],103.67 ± 40.70 Units/L
same,Uric acid (serum),[5],4.6 ± 1.89 mg%
same,histopathological analysis of liver and kidneys,[5],no signs of toxicity

# — publication PMC12486805, “Preclinical evaluation of tridecaptin M: in vitro and in vivo efficacy against colistin-resistant Gram-negative bacterial pathogens and pharmacokinetics” (Antimicrobial Agents and Chemotherapy, 2025)
